Measured values as given in US7585895B2, “Therapeutic substituted cyclopentanes” (Allergan, Inc., priority 2005, dated 2009).

Key:
Type in all cases: cell-based
hTP = target: T1, hTP (Homo sapiens, UniProt P21731); test: FLIPR calcium signal, TP; settings: HEK-293(EBNA)
T1 construct: expressed in transfected cells
T1 sequence (P21731 1-343): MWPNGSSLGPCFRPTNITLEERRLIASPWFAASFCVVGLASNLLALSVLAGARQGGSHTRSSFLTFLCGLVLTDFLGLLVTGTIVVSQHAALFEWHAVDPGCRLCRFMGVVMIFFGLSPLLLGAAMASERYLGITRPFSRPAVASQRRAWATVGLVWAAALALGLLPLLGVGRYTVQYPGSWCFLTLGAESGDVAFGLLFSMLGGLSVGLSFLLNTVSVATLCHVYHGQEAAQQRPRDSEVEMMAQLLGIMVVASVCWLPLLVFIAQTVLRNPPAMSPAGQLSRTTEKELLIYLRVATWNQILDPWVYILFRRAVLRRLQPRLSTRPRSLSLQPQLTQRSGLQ
Outline: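 Stable HEK-293(EBNA) lines expressing recombinant human EP1, TP, or EP2/EP4 coupled via Gqs5; Fluo-4 AM loaded (2 μM, 45 min), HBSS-HEPES pH 7.4, 37° C. Peak FLIPR fluorescence expressed relative to buffer and standard agonist (PGE2 for EP receptors, U-46619 for TP); compounds at 10^−5 M or 10^−5–10^−11 M, duplicates, n≧3.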

EP2 = EP2 (Homo sapiens, UniProt P43116); test: cAMP assay, HEK-EBNA cells expressing EP2; parameters: expressed in transfected cells; host or cells: HEK-EBNA; settings: value in parentheses in EP2 column, read-out: EP2 EC50 (nM), measurement of cAMP (data in parentheses)
Outline: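 HEK-EBNA cells expressing EP2 (10^4 cells per well) were stimulated for 30 min at room temperature with compound in HBSS containing 0.1% BSA, 0.5 mM IBMX and 5 mM HEPES, pH 7.4. Compounds ran in 16-point serial dilutions in triplicate. cAMP was detected by AlphaScreen competition between anti-cAMP acceptor beads and biotin-cAMP/streptavidin donor beads.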

hEP3A/Gqi5 = target: T2, hEP3A/Gqi5 (Homo sapiens, UniProt P43115); test: FLIPR calcium signal, EP3; settings: HEK-293(EBNA); for EC50: read-out: Ca2+ Signal-EC50 (nM) EP3
T2 construct: expressed in transfected cells
T2 sequence (P43115 1-390): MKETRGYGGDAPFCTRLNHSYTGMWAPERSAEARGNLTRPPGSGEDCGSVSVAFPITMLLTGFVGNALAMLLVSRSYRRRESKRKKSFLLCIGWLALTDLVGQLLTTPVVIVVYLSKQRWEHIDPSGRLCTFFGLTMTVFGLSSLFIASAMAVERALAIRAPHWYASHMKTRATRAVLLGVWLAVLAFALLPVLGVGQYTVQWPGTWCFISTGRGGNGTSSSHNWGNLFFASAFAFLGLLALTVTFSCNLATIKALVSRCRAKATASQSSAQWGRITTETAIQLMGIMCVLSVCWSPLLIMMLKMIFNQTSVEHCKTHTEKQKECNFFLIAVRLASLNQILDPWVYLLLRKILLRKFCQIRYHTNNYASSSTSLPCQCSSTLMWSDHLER
Outline: (§1)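 Stably transfected HEK-293(EBNA) cells loaded with 2 μM Fluo-4 AM in HBSS-HEPES pH 7.4, 37° C; peak fluorescence rise after compound addition (FLIPR, 488 nm excitation) expressed relative to buffer and standard agonist controls (PGE2 for EP subtypes, U-46619 for TP). Tested 10^−5 to 10^−11 M, duplicates, n≧3.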

hDP/Gqs5 = target: T3, hDP/Gqs5 (Homo sapiens, UniProt Q13258); test: FLIPR calcium signal, DP; settings: HEK-293(EBNA)
T3 construct: expressed in transfected cells
T3 sequence (Q13258 1-359): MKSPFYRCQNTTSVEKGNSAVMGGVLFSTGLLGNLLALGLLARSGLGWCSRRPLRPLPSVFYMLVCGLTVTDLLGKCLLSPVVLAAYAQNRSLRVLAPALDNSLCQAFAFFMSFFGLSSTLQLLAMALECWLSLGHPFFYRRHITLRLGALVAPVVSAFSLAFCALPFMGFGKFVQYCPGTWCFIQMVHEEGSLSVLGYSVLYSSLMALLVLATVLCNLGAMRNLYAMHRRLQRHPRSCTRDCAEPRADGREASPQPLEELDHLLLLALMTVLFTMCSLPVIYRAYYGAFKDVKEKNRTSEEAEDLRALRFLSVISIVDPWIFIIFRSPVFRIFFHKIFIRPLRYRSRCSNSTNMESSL
Outline: as §1

Sequence of EP2 (P43116 whole entry): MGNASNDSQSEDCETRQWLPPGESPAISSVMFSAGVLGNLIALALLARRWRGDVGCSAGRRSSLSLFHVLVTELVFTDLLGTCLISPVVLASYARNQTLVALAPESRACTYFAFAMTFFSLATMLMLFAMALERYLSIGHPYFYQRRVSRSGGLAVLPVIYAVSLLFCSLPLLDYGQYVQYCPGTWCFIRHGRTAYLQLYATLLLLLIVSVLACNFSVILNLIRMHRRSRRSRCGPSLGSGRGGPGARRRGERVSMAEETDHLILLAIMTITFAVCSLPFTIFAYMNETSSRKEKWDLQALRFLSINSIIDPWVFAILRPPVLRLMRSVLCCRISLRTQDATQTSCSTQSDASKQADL

Ca2+ Signal-EC50 (nM) TP (hTP)	EC50 (EP2) [nM]	EC50 (hEP3A/Gqi5) [nM]	Ca2+ Signal-EC50 (nM) DP (hDP/Gqs5)	Ca2+ Signal-EC50 (nM) EP3 (hEP3A/Gqi5)	EC50 (hTP; read-out: Ca2+ Signal-EC50 (nM) TP) [nM]	SMILES
not active	19	1300	not active	–	–	CCCCCC(O)C(C)(C)c1ccc([C@@H]2[C@@H](C/C=C\CCCC(=O)O)[C@H](Cl)C[C@H]2O)cc1 (stereo partly drawn) [Entry 31, (Z)-7-{(1R,2S,3R,5R)-5-Chloro-3-hydroxy-2-[4-(2-hydroxy-1,1-dimethyl-heptyl)-phenyl]-cyclopentyl}-hept-5-enoic acid]
not active	27	–	not active	not active	–	CCCCCCc1ccc([C@@H]2[C@@H](C/C=C\CCCC(=O)O)[C@H](Cl)C[C@H]2O)cc1 [Entry 33, (Z)-7-[(1R,2S,3R,5R)-5-Chloro-2-(4-hexyl-phenyl)-3-hydroxy-cyclopentyl]-hept-5-enoic acid]
–	5	25	not active	–	6930	CCCCCC(O)c1ccc([C@@H]2[C@@H](C/C=C\CCCC(=O)O)[C@H](Cl)C[C@@H]2O)cc1 (stereo partly drawn) [Entry 34, (Z)-7-{(1R,2S,3S,5R)-5-Chloro-3-hydroxy-2-[4-(1-hydroxy-hexyl)-phenyl]-cyclopentyl}-hept-5-enoic acid]
